Values quoted from earlier work as cited in patent US9980903B2, “Gastric retentive oral dosage form with restricted drug release in the lower gastrointestinal tract” (Depomed, Inc., priority 2001, dated 2018).

Conditions: presently available immediate release dosage form

## O=C(O)c1cn(C2CC2)c2cc(N3CCNCC3)c(F)cc2c1=O [Ciprofloxacin, 1-cyclopropyl-6-fluoro-1,4-dihydro-4-oxo-7-(1-piperazinyl)-3-quinolinecarboxylic acid]
  time at which maximum serum concentration is attained after dosing: 1 to 2 h
